Source: patent US20020137929A1, “1 - (3-heterocyclylphenyl) isothiourea, -isourea, -guanidine and -amidine herbicidal agents” (Intellectual Property Department, BASF Aktiengesellschaft, priority 1998, published 2002)

Legend:
[1] = tested on: CHEAL (Lambsquarters, Common); test: Postemergence herbicidal evaluation; type: in vivo, Chenopodium album; settings: postemergence
Summary of the method: (§1)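 Visual 0-9 injury score (stand, vigor, malformation, size, chlorosis, appearance vs untreated) taken four to five weeks post-spray, averaged across repeat tests. Test plants about two weeks old; foliar spray of acetone/water (1:1) with 0.5% surfactant delivering ~0.0156-0.500 kg active/ha.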

ECHCG (Barnyardgrass) [2] = test: Preemergence herbicidal evaluation; type: in vivo, Echinochloa crus-galli; settings: rated 4-5 weeks after treatment
Summary of the method: (§2)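 Sown cups got a single aqueous acetone spray of test compound (roughly 0.0156–0.500 kg/ha) before seedlings emerged. Evaluation, 4–5 weeks on, used a 0–9 visual scale covering plant stand, vigor, size, malformation, chlorosis and general appearance compared with controls.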

ZEAMX (Corn, Field) = test: Preemergence herbicidal evaluation; type: in vivo, Zea mays; settings: rated 4-5 weeks after treatment
Summary of the method: as §2

[3] = tested on: GLXMAW (Soybean, Williams); test: Postemergence herbicidal evaluation; type: in vivo, Glycine max, (L.) Merr. cv Williams; settings: postemergence
Summary of the method: as §1

[4] = tested on: IPOHE (Morningglory, Ivyleaf); test: Postemergence herbicidal evaluation; type: in vivo, Ipomoea hederacea; settings: postemergence
Summary of the method: as §1

MOOVA (Monochoria) = test: Preemergence weed control under flooded paddy conditions; type: in vivo, Monochoria vaginalis; settings: rated 3-4 weeks after treatment
Summary of the method: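 Values are visual 0-9 scores against a control for a preemergence application into paddy flood water at about 0.0313 to 0.500 kg/ha. Greenhouse duration was three to four weeks.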

GALAP (Galium) = test: Postemergence herbicidal evaluation; type: in vivo, Galium aparine; settings: postemergence
Summary of the method: as §1

SETVI (Foxtail, Green) = test: Postemergence herbicidal evaluation; type: in vivo, Setaria viridis; settings: postemergence
Summary of the method: as §1

CASOB (Sicklepod) = test: Postemergence herbicidal evaluation; type: in vivo, Cassia obtusifolia; settings: postemergence
Summary of the method: as §1

ECHCG (Barnyardgrass) [5] = test: Postemergence herbicidal evaluation; type: in vivo, Echinochloa crus-galli; settings: postemergence
Summary of the method: as §1

[6] = tested on: TRZAWR (Wheat, Winter, cv Riband); test: Postemergence herbicidal evaluation; type: in vivo, Triticum aestivum; settings: postemergence
Summary of the method: as §1

ORYSAT (Rice, Tebonnet) = test: Rice tolerance to post-transplant applications, flooded paddy conditions (Table III); type: in vivo, Oryza sativa, (L.) Tebonnet; settings: in vivo
Summary of the method: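 Injury scored 0-9 by eye against untreated control, judging stand, vigor, malformation, size and chlorosis, three to four weeks after treatment. Compound in 50/50 aqueous/acetone, about 0.0313 to 0.500 kg/ha, was applied to paddy water (1.5 to 3 cm depth) three days after transplanting paired ten-day-old Tebonnet rice seedlings.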

ABUTH (Velvetleaf) = test: Preemergence herbicidal evaluation; type: in vivo, Abutilon theophrasti; settings: rated 4-5 weeks after treatment
Summary of the method: as §2

CYPIR (Rice Flatsedge) = test: Preemergence weed control under flooded paddy conditions; type: in vivo, Cyperus iria; settings: rated 3-4 weeks after treatment
Summary of the method: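 Herbicidal effect is scored visually on a 0-9 scale against an untreated control, three to four weeks after compounds are pipetted into the flood water (1.5 to 3 cm deep) over seeds planted in silt loam at 0.5 cm depth. Rates: about 0.0313 to 0.500 kg/ha.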

SMILES: CCOC(=O)CN1C(=O)C(Cc2ccccc2OCC(=O)O)S/C1=N/c1cc(-n2c(=O)cc(C(F)(F)F)n(C)c2=O)c(F)cc1Cl (stereo not drawn) [Compound 113, 5-[o-(Carboxymethoxy)benzyl]-2-{{2-chloro-5-[3,6-dihydro-3-methyl-2,6-dioxo-4-(trifluoromethyl)-1(2H)-pyrimidinyl]-4-fluorophenyl}imino}-4-oxo-3-thiazolidineacetic acid, 3-ethyl ester]
- Herbicidal rating CHEAL ([1]; rate 0.0158 kg/ha): 5.0
- Herbicidal rating CHEAL ([1]; rate 0.0315 kg/ha): 4.0
- Herbicidal rating CHEAL ([1]; rate 0.0630 kg/ha): 7.0
- Preemergence herbicidal rating ECHCG (ECHCG (Barnyardgrass) [2]; rate 0.0156 kg/ha): 0.0
- Preemergence herbicidal rating ECHCG (ECHCG (Barnyardgrass) [2]; rate 0.0313 kg/ha): 0.0
- Preemergence herbicidal rating ECHCG (ECHCG (Barnyardgrass) [2]; rate 0.0625 kg/ha): 0.0
- Preemergence herbicidal rating ECHCG (ECHCG (Barnyardgrass) [2]; rate 0.1250 kg/ha): 0.0
- Preemergence herbicidal rating ECHCG (ECHCG (Barnyardgrass) [2]; rate 0.2500 kg/ha): 0.0
- Preemergence herbicidal rating ZEAMX (ZEAMX (Corn, Field); rate 0.0156 kg/ha): 0.0
- Preemergence herbicidal rating ZEAMX (ZEAMX (Corn, Field); rate 0.0313 kg/ha): 1.0
- Preemergence herbicidal rating ZEAMX (ZEAMX (Corn, Field); rate 0.0625 kg/ha): 0.0
- Preemergence herbicidal rating ZEAMX (ZEAMX (Corn, Field); rate 0.1250 kg/ha): 0.0
- Preemergence herbicidal rating ZEAMX (ZEAMX (Corn, Field); rate 0.2500 kg/ha): 1.0
- Herbicidal rating GLXMAW ([3]; rate 0.0158 kg/ha): 4.5
- Herbicidal rating GLXMAW ([3]; rate 0.0315 kg/ha): 5.5
- Herbicidal rating GLXMAW ([3]; rate 0.0630 kg/ha): 5.5
- Herbicidal rating IPOHE ([4]; rate 0.0158 kg/ha): 7.0
- Herbicidal rating IPOHE ([4]; rate 0.0315 kg/ha): 9.0
- Herbicidal rating IPOHE ([4]; rate 0.0630 kg/ha): 9.0
- MOOVA herbicidal effect rating (MOOVA (Monochoria); 0.0313 kg/ha): 9.0
- MOOVA herbicidal effect rating (MOOVA (Monochoria); 0.0625 kg/ha): 9.0
- MOOVA herbicidal effect rating (MOOVA (Monochoria); 0.1250 kg/ha): 9.0
- MOOVA herbicidal effect rating (MOOVA (Monochoria); 0.2500 kg/ha): 9.0
- Herbicidal rating GALAP (GALAP (Galium); rate 0.0158 kg/ha): 1.0
- Herbicidal rating GALAP (GALAP (Galium); rate 0.0315 kg/ha): 0.0
- Herbicidal rating GALAP (GALAP (Galium); rate 0.0630 kg/ha): 2.0
- Herbicidal rating SETVI (SETVI (Foxtail, Green); rate 0.0158 kg/ha): 3.0
- Herbicidal rating SETVI (SETVI (Foxtail, Green); rate 0.0630 kg/ha): 3.0
- Herbicidal rating CASOB (CASOB (Sicklepod); rate 0.0158 kg/ha): 0.0
- Herbicidal rating CASOB (CASOB (Sicklepod); rate 0.0315 kg/ha): 0.0
- Herbicidal rating CASOB (CASOB (Sicklepod); rate 0.0630 kg/ha): 4.0
- Herbicidal rating ECHCG (ECHCG (Barnyardgrass) [5]; rate 0.0158 kg/ha): 0.0
- Herbicidal rating ECHCG (ECHCG (Barnyardgrass) [5]; rate 0.0315 kg/ha): 1.0
- Herbicidal rating ECHCG (ECHCG (Barnyardgrass) [5]; rate 0.0630 kg/ha): 1.0
- Herbicidal rating TRZAWR ([6]; rate 0.0158 kg/ha): 2.0
- Herbicidal rating TRZAWR ([6]; rate 0.0315 kg/ha): 2.0
- Herbicidal rating TRZAWR ([6]; rate 0.0630 kg/ha): 3.0
- ORYSAT herbicidal effect rating (rice tolerance) (ORYSAT (Rice, Tebonnet)): 0.0
- Preemergence herbicidal rating ABUTH (ABUTH (Velvetleaf); rate 0.0156 kg/ha): 0.0
- Preemergence herbicidal rating ABUTH (ABUTH (Velvetleaf); rate 0.0313 kg/ha): 1.0
- Preemergence herbicidal rating ABUTH (ABUTH (Velvetleaf); rate 0.0625 kg/ha): 1.0
- Preemergence herbicidal rating ABUTH (ABUTH (Velvetleaf); rate 0.1250 kg/ha): 9.0
- Preemergence herbicidal rating ABUTH (ABUTH (Velvetleaf); rate 0.2500 kg/ha): 9.0
- CYPIR herbicidal effect rating (CYPIR (Rice Flatsedge); 0.0313 kg/ha): 3.0
- CYPIR herbicidal effect rating (CYPIR (Rice Flatsedge); 0.0625 kg/ha): 5.0
- CYPIR herbicidal effect rating (CYPIR (Rice Flatsedge); 0.1250 kg/ha): 5.0
- CYPIR herbicidal effect rating (CYPIR (Rice Flatsedge); 0.2500 kg/ha): 6.0

SMILES: COC(=O)C(C)OC(=O)CN1C(=O)CSC1=Nc1cc(-n2c(=O)cc(C(F)(F)F)n(C)c2=O)c(F)cc1Cl (stereo not drawn) [Compound 116, 2-{{2-Chloro-5-[3,6-dihydro-3-methyl-2,6-dioxo-4-(trifluoromethyl)-1(2H)-pyrimidinyl]-4-fluorophenyl}imino}-4-oxo-3-thiazolidineacetic acid, ester with methyl lactate]
- Herbicidal rating CHEAL ([1]; rate 0.0158 kg/ha): 4.0
- Herbicidal rating CHEAL ([1]; rate 0.0315 kg/ha): 5.0
- Herbicidal rating CHEAL ([1]; rate 0.0630 kg/ha): 9.0
- Preemergence herbicidal rating ECHCG (ECHCG (Barnyardgrass) [2]; rate 0.0156 kg/ha): 0.0
- Preemergence herbicidal rating ECHCG (ECHCG (Barnyardgrass) [2]; rate 0.0313 kg/ha): 0.0
- Preemergence herbicidal rating ECHCG (ECHCG (Barnyardgrass) [2]; rate 0.0625 kg/ha): 0.0
- Preemergence herbicidal rating ECHCG (ECHCG (Barnyardgrass) [2]; rate 0.1250 kg/ha): 0.0
- Preemergence herbicidal rating ECHCG (ECHCG (Barnyardgrass) [2]; rate 0.2500 kg/ha): 0.0
- Preemergence herbicidal rating ZEAMX (ZEAMX (Corn, Field); rate 0.0156 kg/ha): 0.0
- Preemergence herbicidal rating ZEAMX (ZEAMX (Corn, Field); rate 0.0313 kg/ha): 0.0
- Preemergence herbicidal rating ZEAMX (ZEAMX (Corn, Field); rate 0.0625 kg/ha): 0.0
- Preemergence herbicidal rating ZEAMX (ZEAMX (Corn, Field); rate 0.1250 kg/ha): 0.0
- Preemergence herbicidal rating ZEAMX (ZEAMX (Corn, Field); rate 0.2500 kg/ha): 0.0
- Herbicidal rating GLXMAW ([3]; rate 0.0158 kg/ha): 5.5
- Herbicidal rating GLXMAW ([3]; rate 0.0315 kg/ha): 5.5
- Herbicidal rating GLXMAW ([3]; rate 0.0630 kg/ha): 5.5
- Herbicidal rating IPOHE ([4]; rate 0.0158 kg/ha): 9.0
- Herbicidal rating IPOHE ([4]; rate 0.0315 kg/ha): 9.0
- Herbicidal rating IPOHE ([4]; rate 0.0630 kg/ha): 9.0
- herbicidal effect rating, MOOVA (MOOVA (Monochoria); 0.0313 kg/ha): 7.0
- herbicidal effect rating, MOOVA (MOOVA (Monochoria); 0.0625 kg/ha): 9.0
- MOOVA herbicidal effect rating (MOOVA (Monochoria); 0.1250 kg/ha): 9.0
- MOOVA herbicidal effect rating (MOOVA (Monochoria); 0.2500 kg/ha): 9.0
- Herbicidal rating GALAP (GALAP (Galium); rate 0.0158 kg/ha): 0.0
- Herbicidal rating GALAP (GALAP (Galium); rate 0.0315 kg/ha): 0.0
- Herbicidal rating GALAP (GALAP (Galium); rate 0.0630 kg/ha): 0.0
- Herbicidal rating SETVI (SETVI (Foxtail, Green); rate 0.0158 kg/ha): 1.0
- Herbicidal rating SETVI (SETVI (Foxtail, Green); rate 0.0315 kg/ha): 3.0
- Herbicidal rating SETVI (SETVI (Foxtail, Green); rate 0.0630 kg/ha): 3.0
- Herbicidal rating CASOB (CASOB (Sicklepod); rate 0.0158 kg/ha): 1.0
- Herbicidal rating CASOB (CASOB (Sicklepod); rate 0.0315 kg/ha): 1.0
- Herbicidal rating CASOB (CASOB (Sicklepod); rate 0.0630 kg/ha): 1.0
- Herbicidal rating ECHCG (ECHCG (Barnyardgrass) [5]; rate 0.0158 kg/ha): 3.0
- Herbicidal rating ECHCG (ECHCG (Barnyardgrass) [5]; rate 0.0315 kg/ha): 1.0
- Herbicidal rating ECHCG (ECHCG (Barnyardgrass) [5]; rate 0.0630 kg/ha): 2.0
- Herbicidal rating TRZAWR ([6]; rate 0.0158 kg/ha): 1.5
- Herbicidal rating TRZAWR ([6]; rate 0.0315 kg/ha): 2.5
- Herbicidal rating TRZAWR ([6]; rate 0.0630 kg/ha): 2.5
- ORYSAT herbicidal effect rating (rice tolerance) (ORYSAT (Rice, Tebonnet)): 4.0
- herbicidal effect rating, ORYSAT (rice tolerance) (ORYSAT (Rice, Tebonnet)): 2.0
- Preemergence herbicidal rating ABUTH (ABUTH (Velvetleaf); rate 0.0156 kg/ha): 0.0
- Preemergence herbicidal rating ABUTH (ABUTH (Velvetleaf); rate 0.0313 kg/ha): 0.0
- Preemergence herbicidal rating ABUTH (ABUTH (Velvetleaf); rate 0.0625 kg/ha): 4.0
- Preemergence herbicidal rating ABUTH (ABUTH (Velvetleaf); rate 0.1250 kg/ha): 9.0
- Preemergence herbicidal rating ABUTH (ABUTH (Velvetleaf); rate 0.2500 kg/ha): 9.0
- herbicidal effect rating, CYPIR (CYPIR (Rice Flatsedge); 0.0313 kg/ha): 3.0
- herbicidal effect rating, CYPIR (CYPIR (Rice Flatsedge); 0.0625 kg/ha): 6.0
- CYPIR herbicidal effect rating (CYPIR (Rice Flatsedge); 0.1250 kg/ha): 7.0
- CYPIR herbicidal effect rating (CYPIR (Rice Flatsedge); 0.2500 kg/ha): 7.0
